Assay results as given in patent US10759799B2, “Indazole containing macrocycles and therapeutic uses thereof” (Samumed, LLC, priority 2018, dated 2020).

What was measured:
[1] = molecular target: recombinant GSK3β kinase (Homo sapiens (Human), UniProt P49841); test: GSK3β kinase assay (Ser/Thr 09 peptide Z-lyte, FRET); assay type: biochemical; conditions: 46 μM ATP, one hour at room temperature, read-out: EC50 (μM) (IC50 per method)
Source text: Representative compounds were screened using the assay procedure for GSK3β kinase activity as described below.
The GSK3β kinase assay is run using the Ser/Thr 09 peptide Z-lyte assay kit according to manufacturer's instructions (Life Technologies—a Division of Thermo-Fisher). This is a non-radioactive assay using fluorescence resonance energy transfer (FRET) between coumarin and fluorescein to detect kinase activity which is represented as ratio of coumarin emission/fluorescein emission.
Briefly, recombinant GSK3β kinase, ATP and Ser/Thr peptide 09 are prepared in 1× Kinase buffer to final concentrations of 0.04 μg/mL, 46 μM, and 4 μM respectively. The mixture is allowed to incubate with the representative compounds for one hour at room temperature. All reactions were performed in duplicate. Unphosphorylated (“0% Control”) and phosphorylated (“100% control”) forms of […] serve as control reactions.
After incubation, diluted Development Buffer is added to the reaction and allowed to further incubate for one hour at room temperature. The plate is read at Ex 400 Em 455 to detect the coumarin signal and Ex 400 Em 520 to measure the signal (EnVision Multilabel Plate Reader, PerkinElmer).
The Emission ratio (Em) is calculated as a ratio of the coumarin (C) emission signal (at 445 nm)/Fluorescein (F) emission signal (at 520 nm). The percent phosphorylation is then calculated using the following formula: [1−((Em ratio×F100%)−C100%)/((C0%−C100%)+(Em ratio×(F100%−F0%)))].
Dose-response curves are generated and inhibitory concentration (IC50) values are calculated using non-linear regression curve fit in the Dotmatics' Studies Software (Bishops Stortford, UK).

[2] = tested on: IL-6; test: IL-6 inhibition in LPS-stimulated human PBMCs (HTRF); assay type: cell-based; conditions: PBMC; for EC50: huPBMCs, LPS 50 ng/mL, 22 hours, IL-6 HTRF; for inhibition at 10 µM: read-out: percent inhibition at 10 μM
Description: Fresh Normal PB MNC (Catalog # PB001, AllCells, Alameda, Calif.) were shipped overnight at 4° C. and resuspended in Roswell Park Memorial Institute (RPMI) 1640 Medium, with GlutaMAX Supplement (Catalog #61870127, ThermoFisher Scientific, Waltham, Mass.) supplemented with 1% Penicillin-Streptomycin (Catalog #15140163, ThermoFisher Scientific, Waltham, Mass.) and 1% fetal bovine serum (FBS) (Catalog #16140089, ThermoFisher Scientific, Waltham, Mass.) assay media.
Compound Screening: Fresh normal human peripheral blood mononuclear cells (huPBMCs) were resuspended in 1% FBS-RPMI assay media with 1% Penicillin-Streptomycin 1% to a cell concentration of 1×10e6 cells/mL. […] 50 ng/mL of Lipopolysaccharides from Escherichia coli 0111:B4 (Catalog # L5293-2ML, Sigma-Aldrich, St. Louis, Mo.) was added after 2 hours and cells were incubated for another 22 hours at 37° C.-5% CO2. After 22 hour incubation, a mixture of anti-IL6 XL665 and anti-IL-6 Cryptate diluted in reconstitution buffer (Catalog #62IL6PEC, Cisbio Inc., Bedford, Mass.) was added to each well. Following incubation for 3 hours at room temperature, Homogeneous Time-Resolved Fluorescence (HTRF) was measured using the Envision (Perkin Elmer, Shelton, Conn.) at 665 nm and […]. The ratio of fluorescence at 665 nm to 620 nm was used as a readout for IL-6 quantification. All samples were processed in duplicate. Readings were normalized to DMSO treated cells and normalized activities were utilized for EC50 calculations. EC50 was determined using software generated by Dotmatics Limited (Windhill Bishops Stortford Herts, UK) using the Levenberg-Marquardt 4 parameter fitting procedure with finite different gradients.

[3] = tested on: SW480 colon carcinoma cells; test: Cell viability assay (CellTiter-Glo) in SW480 cells; assay type: cell-based; conditions: Homo sapiens; for EC50: 96 h, SW480 cell viability, four days, CellTiter-Glo; for inhibition at 10 µM: SW480, read-out: percent inhibition at 10 μM
Description: Representative compounds were screened using the assay procedure to assess the effect on cell viability as described below.
SW480 colon carcinoma cells were transduced with a lentiviral vector expressing luciferase with a human Sp5 promoter consisting of a sequence of eight TCF/LEF binding sites. SW480 cells stably expressing the Sp5-Luc reporter gene and a hygromycin resistance gene were selected by treatment with 150 μg/mL of hygromycin for 7 days. These stably transduced SW480 cells were expanded in cell culture and used for all further screening activities.
For the Cell Viability Assays, the cells were plated at 2,000 cells/well in 384-well plates with a DMEM medium containing 1% fetal bovine serum, and 1% Penicillin-Streptomycin and incubated for […] at 37° C. and 5% CO2. Eight replicates of DMSO-treated cells served as controls and cells treated with compound were performed in duplicate.
After incubation, 10 μL of CellTiter-Glo (Promega) was added to each well allowed to incubate for approximately 12 minutes. This reagent “results in cell lysis and generation of a luminescent signal proportional to the amount of ATP present. The amount of ATP is directly proportional to the number of cells present in culture, in agreement with previous reports. The CellTiter-Glo Assay generates a “glow-type” luminescent signal, produced by the luciferase reaction (Promega.com)”.

[4] = tested on: Wnt activity (Sp5-Luc reporter, SW480 colon carcinoma cells); test: Sp5-Luc reporter gene screening assay for Wnt activity in SW480 cells; assay type: cell-based; conditions: Homo sapiens; for inhibition at 10 µM: SW480, read-out: percent inhibition at 10 μM; for EC50: Sp5-Luc reporter, SW480 cells, 36 to 48 hours
Source text: The screening assay for Wnt activity is described as follows. Reporter cell lines can be generated by stably transducing cancer cell lines (e.g., colon cancer) or primary cells (e.g., IEC-6 intestinal cells) with a lentiviral construct that includes a Wnt-responsive promoter driving expression of the firefly luciferase gene.
SW480 colon carcinoma cells were transduced with a lentiviral vector expressing luciferase with a human Sp5 promoter consisting of a sequence of eight TCF/LEF binding sites. SW480 cells stably expressing the Sp5-Luc reporter gene and a hygromycin resistance gene were selected by treatment with 150 μg/mL of hygromycin for 7 days. These stably transduced SW480 cells were expanded in cell culture and used for all further screening activities. […] For Sp5-Luc reporter gene assays, the cells were plated at 4,000 cells/well in 384-well plates with a DMEM medium containing 1% fetal bovine serum, and 1% Penicillin-Streptomycin and incubated for 36 to 48 hours at 37° C. and 5% CO2. Following incubation, 15 μl of BriteLite Plus luminescence reagent (Perkin Elmer) was added to each well of the 384-well assay plates. The plates were placed on an orbital shaker for 2 min and then luminescence was quantified using the Envision (Perkin Elmer) plate reader. Readings were normalized to DMSO only treated cells, and normalized activities were utilized for EC50 calculations using the dose-response log (inhibitor) vs. response-variable slope (four parameters) nonlinear regression feature available in GraphPad Prism 5.0 (or Dotmatics).

Chain of recombinant GSK3β kinase (P49841 whole entry): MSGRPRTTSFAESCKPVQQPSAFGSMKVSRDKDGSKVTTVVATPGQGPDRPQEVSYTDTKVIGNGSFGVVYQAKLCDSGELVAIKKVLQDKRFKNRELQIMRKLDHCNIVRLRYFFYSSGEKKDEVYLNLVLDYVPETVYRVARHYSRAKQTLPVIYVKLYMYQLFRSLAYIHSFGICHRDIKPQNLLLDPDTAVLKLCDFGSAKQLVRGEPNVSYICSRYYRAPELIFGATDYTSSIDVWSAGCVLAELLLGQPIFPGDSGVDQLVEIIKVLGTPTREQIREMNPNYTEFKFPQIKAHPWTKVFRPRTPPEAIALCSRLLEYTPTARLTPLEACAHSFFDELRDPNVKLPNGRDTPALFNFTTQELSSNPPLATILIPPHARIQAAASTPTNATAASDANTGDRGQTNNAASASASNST

SMILES	IC50 [1] [µM]	EC50 [2] [µM]	inhibition at 10 µM [2] [%]	EC50 [3] [µM]	inhibition at 10 µM [3] [%]	inhibition at 10 µM [4] [%]	EC50 [4] [µM]
O=C1NC2CCC(CC2)NCc2cncc(c2)-c2ccc3[nH]nc(c3c2)-c2nc3c1cccc3[nH]2 [Compound 64, (6^1s,6^4s,Z)-1^1H,2^1H-5,7-diaza-1 (2,4),2(3,5)-dibenzo[d]imidazola-3(3,5)-pyridina-6(1,4)-cyclohexanacyclooctaphan-8-one]	0.088	> 10	12.7	> 10	15.8	47.4	> 10
O=C1CCc2cccc(c2)-c2cncc(c2)NC(=O)c2n[nH]c3ccc(cc23)-c2cncc(c2)CN1 [Compound 97, 2^1H-4,10-diaza-2(5,3)-indazola-1,5(3,5)-dipyridina-6(1,3)-benzenacycloundecaphane-3,9-dione]	0.01	> 10	25.7	> 10	25	22.2	> 10
